For orientation: Ki means a measure of affinity in units of concentration, obtained from inhibition or displacement. A low value points to a stronger hold on the target.

This note sets out measurements from BindingDB's records for patent US10053463 (Janssen Pharmaceutica NV, 2018).

This assay addresses T1, P2X purinoceptor 7 (Homo sapiens, UniProt Q99572).
T1 sequence (Q99572 whole entry): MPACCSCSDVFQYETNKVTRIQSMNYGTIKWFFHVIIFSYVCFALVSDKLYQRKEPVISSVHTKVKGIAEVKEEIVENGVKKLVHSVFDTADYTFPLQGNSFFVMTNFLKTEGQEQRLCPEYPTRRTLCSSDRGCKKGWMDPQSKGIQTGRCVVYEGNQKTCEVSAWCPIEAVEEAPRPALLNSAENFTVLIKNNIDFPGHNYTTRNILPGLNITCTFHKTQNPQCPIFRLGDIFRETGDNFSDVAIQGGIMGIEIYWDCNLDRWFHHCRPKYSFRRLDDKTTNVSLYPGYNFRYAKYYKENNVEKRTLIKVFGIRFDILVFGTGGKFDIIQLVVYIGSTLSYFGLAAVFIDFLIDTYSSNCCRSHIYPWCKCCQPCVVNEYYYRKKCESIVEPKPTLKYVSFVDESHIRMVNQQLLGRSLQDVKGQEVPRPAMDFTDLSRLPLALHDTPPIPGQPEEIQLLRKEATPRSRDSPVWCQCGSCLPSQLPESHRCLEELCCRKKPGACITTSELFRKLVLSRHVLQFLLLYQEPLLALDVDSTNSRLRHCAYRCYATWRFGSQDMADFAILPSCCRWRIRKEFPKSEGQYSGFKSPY
Nature of the assay: P2X7 Radioligand Binding. As for the experimental part: human or rat P2X7-1321N1 cells were collected and frozen @−80° C. On the day of the experiment, cell membrane preparations were made according to standard published methods. […] The compound can be prepared as described in the literature. […] The assay was terminated by filtration (GF/B filters pre-soaked with 0.3% PEI) and washed with washing buffer (Tris-HCl 50 mM). The IC50 generated in the binding assay was corrected for tracer concentration and affinity of the tracer to derive at the affinity (K) of the test compounds. […] Data are analyzed and graphed on Graphpad Prism 5.

On to `O=C1NCCn2c1nnc2-c1cnccn1` [US10053463, 1], for which the Ki was 63.1 nM.

`NNC(=O)c1ncccn1` [US10053463, 8] registered a Ki of 20 nM.

Compound `NNC(=O)c1ccncn1` [US10053463, 9] returned a Ki of 10 nM.
